The target in data set [1] is Tyrosine-protein kinase SYK (Homo sapiens, UniProt P43405). The experiment in a line: Selectivity interaction (KinomeScan (DiscoverX)) EUB0001049a SYK. As to conditions: at 1 µM.
Data set [2] concerns the target T1, Interleukin-1 receptor-associated kinase 3 (Homo sapiens) (UniProt Q9Y616).
T1 sequence (whole entry): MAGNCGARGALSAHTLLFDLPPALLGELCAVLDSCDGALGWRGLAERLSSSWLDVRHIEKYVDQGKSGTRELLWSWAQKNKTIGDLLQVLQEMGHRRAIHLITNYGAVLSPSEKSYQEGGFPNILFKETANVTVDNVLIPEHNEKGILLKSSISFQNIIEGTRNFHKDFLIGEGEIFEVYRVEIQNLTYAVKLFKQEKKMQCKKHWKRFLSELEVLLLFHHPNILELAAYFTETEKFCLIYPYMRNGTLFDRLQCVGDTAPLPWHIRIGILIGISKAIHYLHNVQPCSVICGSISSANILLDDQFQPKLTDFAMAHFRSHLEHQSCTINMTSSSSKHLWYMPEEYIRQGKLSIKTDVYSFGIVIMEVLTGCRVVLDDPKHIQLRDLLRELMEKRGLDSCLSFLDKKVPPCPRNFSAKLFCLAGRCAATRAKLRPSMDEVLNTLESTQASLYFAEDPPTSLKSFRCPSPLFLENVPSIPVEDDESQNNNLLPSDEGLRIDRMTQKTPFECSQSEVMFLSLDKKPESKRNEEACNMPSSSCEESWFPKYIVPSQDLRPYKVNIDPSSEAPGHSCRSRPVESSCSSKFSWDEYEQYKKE
Nature of the data set: Selectivity interaction (KinomeScan (DiscoverX)) EUB0000655a IRAK3. The settings on record: at 10 µM.

The target in data set [3] is Voltage-dependent L-type calcium channel subunit alpha-1C (Homo sapiens, UniProt Q13936). Nature of the data set: Selectivity interaction (Panel of non-epigenetic targets (kinases, GPCRs, ion channels, and transporters, Eurofins) ) EUB0000271b CACNA1C. As to conditions: at 1 µM.
Voltage-dependent L-type calcium channel subunit alpha-1C, sequence (Q13936 whole entry): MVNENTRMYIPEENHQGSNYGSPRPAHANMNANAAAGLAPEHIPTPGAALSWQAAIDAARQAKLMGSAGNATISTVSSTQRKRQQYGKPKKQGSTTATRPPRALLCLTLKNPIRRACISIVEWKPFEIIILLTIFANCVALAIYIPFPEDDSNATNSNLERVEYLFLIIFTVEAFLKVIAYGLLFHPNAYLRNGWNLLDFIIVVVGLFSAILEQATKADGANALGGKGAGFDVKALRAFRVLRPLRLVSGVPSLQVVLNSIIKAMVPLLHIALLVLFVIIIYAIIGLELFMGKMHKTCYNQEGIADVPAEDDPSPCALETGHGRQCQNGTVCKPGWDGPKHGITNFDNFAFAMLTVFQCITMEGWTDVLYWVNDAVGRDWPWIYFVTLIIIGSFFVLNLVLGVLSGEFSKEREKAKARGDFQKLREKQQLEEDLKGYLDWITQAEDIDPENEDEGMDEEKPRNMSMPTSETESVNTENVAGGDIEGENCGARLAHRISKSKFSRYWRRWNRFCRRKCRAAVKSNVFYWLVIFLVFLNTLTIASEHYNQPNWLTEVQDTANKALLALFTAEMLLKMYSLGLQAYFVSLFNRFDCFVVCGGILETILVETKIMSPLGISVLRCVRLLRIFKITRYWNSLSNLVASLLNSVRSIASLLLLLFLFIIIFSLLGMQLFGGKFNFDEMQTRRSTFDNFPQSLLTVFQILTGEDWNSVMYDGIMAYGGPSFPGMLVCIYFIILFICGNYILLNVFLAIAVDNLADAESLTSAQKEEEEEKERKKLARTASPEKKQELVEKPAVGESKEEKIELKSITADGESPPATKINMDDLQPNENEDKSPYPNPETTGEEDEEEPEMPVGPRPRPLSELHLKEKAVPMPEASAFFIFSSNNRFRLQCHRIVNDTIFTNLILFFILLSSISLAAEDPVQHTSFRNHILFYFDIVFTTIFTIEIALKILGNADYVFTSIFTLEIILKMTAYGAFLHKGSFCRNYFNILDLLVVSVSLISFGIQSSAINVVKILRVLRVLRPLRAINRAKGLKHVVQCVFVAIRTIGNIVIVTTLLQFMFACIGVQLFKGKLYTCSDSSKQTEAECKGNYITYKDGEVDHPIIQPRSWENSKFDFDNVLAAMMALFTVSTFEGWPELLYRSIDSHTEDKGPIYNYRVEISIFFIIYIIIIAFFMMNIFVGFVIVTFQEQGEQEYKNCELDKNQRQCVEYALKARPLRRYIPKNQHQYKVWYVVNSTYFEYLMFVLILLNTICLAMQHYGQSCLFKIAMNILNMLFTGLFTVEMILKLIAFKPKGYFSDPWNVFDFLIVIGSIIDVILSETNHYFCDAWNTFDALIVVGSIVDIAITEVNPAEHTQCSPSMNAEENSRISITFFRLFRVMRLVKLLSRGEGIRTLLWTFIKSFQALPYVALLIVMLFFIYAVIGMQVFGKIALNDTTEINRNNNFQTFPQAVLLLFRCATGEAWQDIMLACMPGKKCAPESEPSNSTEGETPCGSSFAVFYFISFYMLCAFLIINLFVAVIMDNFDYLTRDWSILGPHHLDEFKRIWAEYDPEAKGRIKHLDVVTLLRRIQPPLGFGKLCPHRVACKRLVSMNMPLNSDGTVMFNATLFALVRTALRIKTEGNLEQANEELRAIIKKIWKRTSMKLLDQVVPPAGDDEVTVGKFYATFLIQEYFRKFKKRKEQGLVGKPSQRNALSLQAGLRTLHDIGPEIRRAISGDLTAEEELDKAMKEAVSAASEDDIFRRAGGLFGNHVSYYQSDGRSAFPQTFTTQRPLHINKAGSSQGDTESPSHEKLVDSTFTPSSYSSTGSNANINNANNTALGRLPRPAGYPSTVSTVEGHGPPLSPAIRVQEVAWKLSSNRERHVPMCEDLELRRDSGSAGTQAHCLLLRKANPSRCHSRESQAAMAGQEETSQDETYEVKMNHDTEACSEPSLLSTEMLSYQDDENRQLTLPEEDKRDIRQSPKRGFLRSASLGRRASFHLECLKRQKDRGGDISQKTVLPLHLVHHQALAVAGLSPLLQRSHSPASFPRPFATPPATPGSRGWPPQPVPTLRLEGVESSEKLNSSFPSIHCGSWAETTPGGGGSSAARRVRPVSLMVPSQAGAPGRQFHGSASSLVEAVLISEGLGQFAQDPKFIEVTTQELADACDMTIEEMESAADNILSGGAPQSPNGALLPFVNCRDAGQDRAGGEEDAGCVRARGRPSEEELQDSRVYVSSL
Data set [4] has as its target T1, Interleukin-1 receptor-associated kinase 3 (Homo sapiens). The experiment in a line: Selectivity interaction (KinomeScan (DiscoverX)) EUB0000666a IRAK3. As to conditions: at 10 µM.
Data set [5] addresses T2, Histone-arginine methyltransferase CARM1 (Homo sapiens) (UniProt Q86X55).
T2 sequence (whole entry): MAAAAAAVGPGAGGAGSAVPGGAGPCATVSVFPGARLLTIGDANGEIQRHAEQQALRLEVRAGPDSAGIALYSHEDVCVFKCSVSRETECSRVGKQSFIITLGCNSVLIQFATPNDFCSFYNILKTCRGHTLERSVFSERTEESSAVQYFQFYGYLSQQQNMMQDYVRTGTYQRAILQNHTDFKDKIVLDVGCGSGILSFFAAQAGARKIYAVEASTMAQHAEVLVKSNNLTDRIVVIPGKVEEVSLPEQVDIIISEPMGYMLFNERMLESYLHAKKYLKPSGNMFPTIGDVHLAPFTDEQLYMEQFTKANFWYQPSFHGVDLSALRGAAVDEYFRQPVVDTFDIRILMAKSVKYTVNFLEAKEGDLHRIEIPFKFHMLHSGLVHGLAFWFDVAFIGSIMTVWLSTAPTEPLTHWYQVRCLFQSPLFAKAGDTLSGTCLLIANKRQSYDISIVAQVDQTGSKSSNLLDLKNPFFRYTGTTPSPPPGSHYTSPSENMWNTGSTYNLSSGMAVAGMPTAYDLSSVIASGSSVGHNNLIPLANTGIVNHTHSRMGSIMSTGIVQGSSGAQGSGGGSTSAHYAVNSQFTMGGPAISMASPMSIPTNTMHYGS
As to conditions: KMS-12-BM, at 3 µM.

Data set [6] has as its target Ephrin type-A receptor 7 (Homo sapiens) (UniProt Q15375). Nature of the data set: Selectivity interaction (Kinase panel (Invitrogen)) EUB0000639a EPHA7. As to conditions: at 200 nM.
The target in data set [7] is Platelet-derived growth factor receptor alpha (Homo sapiens, UniProt P16234). Nature of the data set: Selectivity interaction (KinomeScan (DiscoverX)) EUB0000229b PDGFRA. As to conditions: at 10 µM.
Platelet-derived growth factor receptor alpha, sequence (P16234 whole entry): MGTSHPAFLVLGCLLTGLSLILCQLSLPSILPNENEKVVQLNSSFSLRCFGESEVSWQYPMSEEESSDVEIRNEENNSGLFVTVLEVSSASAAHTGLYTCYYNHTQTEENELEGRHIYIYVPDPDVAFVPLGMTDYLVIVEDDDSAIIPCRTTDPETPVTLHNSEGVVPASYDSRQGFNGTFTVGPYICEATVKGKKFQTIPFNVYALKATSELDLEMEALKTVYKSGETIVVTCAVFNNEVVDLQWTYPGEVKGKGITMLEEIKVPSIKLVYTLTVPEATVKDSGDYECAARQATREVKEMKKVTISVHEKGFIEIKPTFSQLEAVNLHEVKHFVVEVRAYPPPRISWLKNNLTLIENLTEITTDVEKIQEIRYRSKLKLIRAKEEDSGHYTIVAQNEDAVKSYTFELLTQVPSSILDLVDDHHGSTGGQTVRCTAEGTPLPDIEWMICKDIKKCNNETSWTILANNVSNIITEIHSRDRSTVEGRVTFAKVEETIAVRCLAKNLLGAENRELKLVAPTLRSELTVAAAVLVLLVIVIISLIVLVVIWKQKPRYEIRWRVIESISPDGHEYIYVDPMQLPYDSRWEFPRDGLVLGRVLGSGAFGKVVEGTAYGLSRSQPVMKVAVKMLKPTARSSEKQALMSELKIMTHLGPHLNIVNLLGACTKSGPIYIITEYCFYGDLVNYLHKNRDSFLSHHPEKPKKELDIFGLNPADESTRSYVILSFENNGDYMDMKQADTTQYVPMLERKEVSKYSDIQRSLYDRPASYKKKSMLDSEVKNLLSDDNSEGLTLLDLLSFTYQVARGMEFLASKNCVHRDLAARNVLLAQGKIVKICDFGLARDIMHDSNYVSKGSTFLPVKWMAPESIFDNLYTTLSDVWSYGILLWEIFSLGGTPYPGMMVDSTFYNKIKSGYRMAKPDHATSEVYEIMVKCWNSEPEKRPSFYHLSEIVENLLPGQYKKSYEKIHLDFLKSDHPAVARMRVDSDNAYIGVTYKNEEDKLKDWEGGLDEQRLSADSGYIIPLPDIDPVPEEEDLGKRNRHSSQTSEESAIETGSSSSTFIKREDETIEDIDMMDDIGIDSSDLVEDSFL
The target of data set [8] is Ribosomal protein S6 kinase alpha-5 (Homo sapiens) (UniProt O75582). Nature of the data set: Selectivity interaction (KinomeScan (DiscoverX)) EUB0001619a RPS6KA5. As to conditions: at 1 µM.
Ribosomal protein S6 kinase alpha-5 (Homo sapiens), sequence (O75582 whole entry, looked up): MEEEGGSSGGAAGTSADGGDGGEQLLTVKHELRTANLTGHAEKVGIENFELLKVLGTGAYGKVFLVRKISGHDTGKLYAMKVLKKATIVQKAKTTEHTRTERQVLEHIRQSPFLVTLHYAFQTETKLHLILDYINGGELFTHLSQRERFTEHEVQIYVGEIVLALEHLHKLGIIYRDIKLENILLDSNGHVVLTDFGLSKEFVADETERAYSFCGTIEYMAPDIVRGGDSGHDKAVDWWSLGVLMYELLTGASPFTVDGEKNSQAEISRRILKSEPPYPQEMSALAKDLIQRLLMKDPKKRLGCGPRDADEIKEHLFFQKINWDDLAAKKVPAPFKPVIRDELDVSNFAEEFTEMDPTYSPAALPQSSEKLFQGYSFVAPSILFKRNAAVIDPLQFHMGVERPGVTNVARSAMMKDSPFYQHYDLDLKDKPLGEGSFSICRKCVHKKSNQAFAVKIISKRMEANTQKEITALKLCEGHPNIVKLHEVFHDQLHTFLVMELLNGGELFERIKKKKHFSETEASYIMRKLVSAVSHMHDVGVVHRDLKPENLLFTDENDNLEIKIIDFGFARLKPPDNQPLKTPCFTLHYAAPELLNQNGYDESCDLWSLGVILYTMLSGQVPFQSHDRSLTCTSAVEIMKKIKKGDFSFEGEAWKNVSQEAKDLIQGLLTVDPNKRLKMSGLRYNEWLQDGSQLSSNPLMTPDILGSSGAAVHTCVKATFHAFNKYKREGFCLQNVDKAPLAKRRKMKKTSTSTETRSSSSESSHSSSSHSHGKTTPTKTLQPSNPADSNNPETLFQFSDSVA
Data set [9] deals with T3, Phosphatidylinositol 5-phosphate 4-kinase type-2 alpha (Homo sapiens) (UniProt P48426).
T3 sequence (whole entry): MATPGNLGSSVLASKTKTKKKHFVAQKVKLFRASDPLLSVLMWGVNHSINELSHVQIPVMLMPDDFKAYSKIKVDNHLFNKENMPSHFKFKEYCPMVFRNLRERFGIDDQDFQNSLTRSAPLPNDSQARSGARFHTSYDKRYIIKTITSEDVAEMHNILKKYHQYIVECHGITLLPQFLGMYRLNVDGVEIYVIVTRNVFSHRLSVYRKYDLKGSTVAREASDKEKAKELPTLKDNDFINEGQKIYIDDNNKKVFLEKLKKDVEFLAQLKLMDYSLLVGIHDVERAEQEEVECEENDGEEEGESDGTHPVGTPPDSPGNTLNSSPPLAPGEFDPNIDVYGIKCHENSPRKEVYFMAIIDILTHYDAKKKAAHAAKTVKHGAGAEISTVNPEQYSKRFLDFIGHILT
The experiment in a line: Selectivity interaction (Kinase panel (literature)) EUB0001199aCl PIP4K2A. As to conditions: at 1 µM.

In data set [10] the target is T4, Interleukin-1 receptor-associated kinase 4 (Homo sapiens) (UniProt Q9NWZ3).
T4 sequence (whole entry): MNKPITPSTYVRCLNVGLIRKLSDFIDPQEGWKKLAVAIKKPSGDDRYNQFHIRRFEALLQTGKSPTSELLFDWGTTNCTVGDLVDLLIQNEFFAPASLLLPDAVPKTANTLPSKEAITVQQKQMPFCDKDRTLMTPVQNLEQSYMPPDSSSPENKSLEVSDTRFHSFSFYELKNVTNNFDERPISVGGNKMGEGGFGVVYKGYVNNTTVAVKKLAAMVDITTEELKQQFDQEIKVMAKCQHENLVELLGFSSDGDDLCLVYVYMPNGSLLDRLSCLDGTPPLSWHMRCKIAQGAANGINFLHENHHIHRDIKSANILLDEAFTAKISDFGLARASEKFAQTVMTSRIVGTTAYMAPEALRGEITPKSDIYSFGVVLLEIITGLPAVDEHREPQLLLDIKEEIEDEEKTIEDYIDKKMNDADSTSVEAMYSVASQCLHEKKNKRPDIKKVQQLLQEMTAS
The experiment in a line: Selectivity interaction (Kinase panel (KiNativ target engagement assay in Jurkat cells)) EUB0001635a IRAK4. The data set is classed as cell-based. The settings on record: Selectivity number of off-targets 0.0, Selectivity number of targets 233.0, Source Knowledge https://www.sciencedirect.com/science/article/pii/S2451945619300674?via%3Dihub, at 1 µM.

Structures are written as SMILES.

Ephrin type-A receptor 7 (Homo sapiens), sequence (Q15375 28-998 limits assumed): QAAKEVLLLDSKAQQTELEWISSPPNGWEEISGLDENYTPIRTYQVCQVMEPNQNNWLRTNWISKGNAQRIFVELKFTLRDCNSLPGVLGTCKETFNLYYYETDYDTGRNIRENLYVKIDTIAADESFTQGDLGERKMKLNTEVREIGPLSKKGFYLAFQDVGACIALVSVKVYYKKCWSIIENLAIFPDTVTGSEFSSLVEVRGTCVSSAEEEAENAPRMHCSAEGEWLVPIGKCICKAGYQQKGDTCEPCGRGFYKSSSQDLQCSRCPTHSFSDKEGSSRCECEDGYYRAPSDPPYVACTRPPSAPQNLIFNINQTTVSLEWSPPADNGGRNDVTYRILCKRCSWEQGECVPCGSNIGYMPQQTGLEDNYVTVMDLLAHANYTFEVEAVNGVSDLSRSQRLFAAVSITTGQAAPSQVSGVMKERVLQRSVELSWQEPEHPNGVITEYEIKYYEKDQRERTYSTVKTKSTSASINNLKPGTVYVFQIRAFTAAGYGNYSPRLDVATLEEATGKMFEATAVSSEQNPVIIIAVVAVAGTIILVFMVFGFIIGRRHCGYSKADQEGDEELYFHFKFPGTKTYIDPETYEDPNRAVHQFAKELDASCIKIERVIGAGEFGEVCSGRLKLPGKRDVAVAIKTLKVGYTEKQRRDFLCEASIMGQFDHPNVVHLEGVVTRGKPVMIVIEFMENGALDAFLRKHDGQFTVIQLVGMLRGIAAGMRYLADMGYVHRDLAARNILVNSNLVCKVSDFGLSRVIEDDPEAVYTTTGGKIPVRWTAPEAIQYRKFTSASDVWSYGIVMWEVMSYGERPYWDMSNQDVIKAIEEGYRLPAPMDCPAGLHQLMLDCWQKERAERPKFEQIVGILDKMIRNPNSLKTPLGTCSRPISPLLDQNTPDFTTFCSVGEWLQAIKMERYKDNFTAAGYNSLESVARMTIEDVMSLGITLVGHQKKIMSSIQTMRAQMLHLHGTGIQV

On to `COc1cc(Nc2nc(C)cc(-c3cnn4nc(OC)ccc34)n2)cc(C(F)(F)F)c1`, for which the % of control in data set [1] was found to be 100%.
In [2], `CN(C)CCOc1ccc(-c2nc(-c3ccncc3)c(-c3ccc4c(c3)CC/C4=N\O)[nH]2)cc1` displayed a % of control of 71%.
For the molecule `Cc1cc(C)cc([C@@H]2c3cc(C)ccc3NC(=O)CN2C(=O)c2ccc(Br)s2)c1`, the “% of inhibition” value in [3] is on record as -8%.
In data set [4], `O=C(NOC[C@H](O)CO)c1ccc(F)c(F)c1Nc1ccc(I)cc1F` registered a % of control of 100%.
On to `CNCCN1CCC(c2cc(CN(C)C(=O)c3cccc(Oc4ccccc4)c3)ccn2)CC1`, for which the % of growth rate in [5] is -8.2%.
In the case of `CC[C@@H]1[C@H](F)C(=O)N[C@@H]1COc1nccc2cc(C(N)=O)c(OC)cc12` [ZIMLOVISERTIB], the % of inhibition in [6] was -7.96%.
In data set [7], `COc1cc(N(C)c2ccnc3ccc(C(F)(F)F)cc23)cc(OC)c1OC` yielded a % binding of 98%.
`N#Cc1cccc(-c2c[nH]c3ncnc(N4CCOCC4)c23)c1`: in [8], the % of control worked out at 100%.
Take `CN1Cc2nccc(-c3cn(C)nc3-c3ccc(F)cc3)c2C1=O`: the % of inhibition in data set [9] was -6%.
In the case of `C=CC(=O)Nc1ccc(C(=O)Nc2[nH]nc3c2CN(C(=O)N[C@H](CN(C)C)c2ccccc2)C3(C)C)cc1`, the % of engagement in [10] was 2%.

The values are drawn from ChEMBL document CHEMBL5465560, “Selectivity Literature for EUbOPEN Chemogenomic Library” (2024).
